In patent US12162867B2, “Inhibitors of RNA helicase DHX9 and uses thereof” (ACCENT THERAPEUTICS, INC., priority 2022, dated 2024):

These molecules were tested on circBRIP1 in HCT116 cells (assay: DHX9 circBRIP1 cellular target engagement SYBR Green assay (qPCR)). Conditions: Homo sapiens, HCT-116, circBRIP1, HCT116 cells; SyBr assay (marked ^+); read-out: DHX9 Cellular Target Engagement EC50.
Type: cell-based

Compound	EC50
CS(=O)(=O)Nc1cc(Cl)cc(NC(=O)c2cc(-c3ccccc3)c[nH]2)c1 [Example 8]	5520 nM
Cc1cc(C(=O)Nc2cc(Cl)cc(NS(C)(=O)=O)c2)cn1-c1ccc(N2CCOC(C)(C)C2)cn1 [Example 272]	31.1 nM
CS(=O)(=O)Nc1cc(Cl)cc(NC(=O)c2cc(-c3ccc(N4CC5(COC5)C4)cn3)n(CC(F)(F)F)c2)c1 [Example 278]	251 nM
CS(=O)(=O)Nc1cc(Br)cc(NC(=O)c2cnn(-c3cc(C#N)ccn3)c2)c1 [Example 38]	933 nM
CS(=O)(=O)Nc1cc(Cl)cc(NC(=O)c2cc(-c3ncc(F)cn3)cs2)c1 [Example 338]	126 nM
CS(=N)(=O)Nc1cc(Br)cc(NC(=O)c2cc(-c3ccccn3)cs2)c1 (stereo not shown) [Example 121, N-(3-bromo-5-(methylsulfonoamidimidamido)phenyl)-4-(pyridin-2-yl)thiophene-2-carboxamide]	5430 nM
CCS(=O)(=O)Nc1cc(Cl)cc(NC(=O)c2cc(-c3ncc(F)cc3C)cs2)c1 [Example 226]	388 nM
CS(=O)(=O)Nc1cc(Cl)cc(NC(=O)c2cc(N3CCN(CC(F)(F)F)CC3)cs2)c1 [Example 246]	3930 nM
CS(=O)(=O)Nc1cc(Cl)cc(NC(=O)c2cnn(-c3ncccc3OCc3ccccn3)c2)c1 [Example 63]	2430 nM
Cn1nc(C(=O)Nc2cc(Cl)cc(NS(C)(=O)=O)c2)cc1-c1ccccc1OCc1ccccc1 [Example 138, 5-(2-(benzyloxy)phenyl)-N-(3-chloro-5-(methylsulfonamido)phenyl)-1-methyl-1H-pyrazole-3-carboxamide]	> 10000 nM
CS(=O)(=O)Nc1cc(Br)cc(NC(=O)c2ccc3c(c2)[nH]c(=O)n3Cc2ccccc2)c1 [Example 99, 1-benzyl-N-(3-bromo-5-(methylsulfonamido)phenyl)-2-oxo-2,3-dihydro-1H-benzo[d]imidazole-5-carboxamide]	> 10000 nM
CS(=O)(=O)Nc1cc(Cl)cc(NC(=O)c2cc(-c3ccccc3)n(CC(F)(F)F)c2)c1 [Example 80]	3090 nM
Cc1cc(C(=O)Nc2cc(Cl)cc(NS(=O)(=O)C(F)F)c2)cn1-c1ccc(N2CCOCC2)cn1 [Example 248]	> 10000 nM
Cc1sc(C(=O)Nc2cc(Cl)cc(NS(C)(=O)=O)c2)cc1-c1cn(-c2ccccc2)nn1 [Example 236]	106 nM
COc1cccc2cc(C(=O)Nc3cc(Cl)cc(NS(C)(=O)=O)c3)sc12 [Example 303]	> 10000 nM
Cc1sc(C(=O)Nc2cc(Cl)cc(NS(C)(=O)=O)c2)cc1-c1cn(Cc2ccccc2)nn1 [Example 235]	645 nM
CS(=O)(=O)Nc1cc(Br)cc(NC(=O)c2cc(-c3ccccc3OCc3ccccc3)cs2)c1 [Example 30]	687 nM
CS(=O)(=O)Nc1cc(Cl)cc(NC(=O)c2cnn(-c3ncccc3OCc3ccccc3F)c2)c1 [Example 189]	308 nM
CS(=O)(=O)Nc1cc(Cl)cc(NC(=O)c2cnn(-c3c(F)cccc3OCc3cccc(F)c3)c2)c1 [Example 211]	189 nM
CN1CCN(c2ccc(-n3cc(C(=O)Nc4cc(Br)cc(NS(C)(=O)=O)c4)cn3)nc2)CC1=O [Example 88]	> 10000 nM
CS(=O)(=O)Nc1cc(Cl)cc(NC(=O)c2cnn(-c3ncccc3OCc3nccs3)c2)c1 [Example 205]	841 nM
CS(=O)(=O)Nc1cc(I)cc(NC(=O)c2cc(-c3ccccc3)cs2)c1 [Example 16]	3510 nM
CS(=O)(=O)Nc1cc(Cl)cc(NC(=O)c2cccc(-c3cccc(C#N)c3)c2)c1 [Example 13]	7970 nM
CS(=O)(=O)Nc1cc(F)cc(NC(=O)c2c[nH]c(Br)c2)c1 [Example 2]	> 30000 nM
Cn1cc(C(=O)Nc2cc(Cl)cc(NS(C)(=O)=O)c2)cc1-c1ncc(F)cc1OCc1cnco1 [Example 268]	182 nM
COc1ccc2cc(C(=O)Nc3cc(Cl)cc(NS(C)(=O)=O)c3)sc2c1 [Example 327]	3540 nM
CS(=O)(=O)Nc1cc(Br)cc(NC(=O)c2cccc(-n3cccn3)c2)c1 [Example 118]	2930 nM
Cc1sc(C(=O)Nc2cc(Cl)cc(NS(C)(=O)=O)c2)cc1-c1ncccc1CC(=O)N(C)C [Example 385]	1330 nM
CS(=O)(=O)Nc1cc(Cl)cc(NC(=O)c2cnn(-c3ncc(F)cc3OCc3cccc(C#N)c3)c2)c1 [Example 203]	341 nM

Second part, the molecule after the results:

EC50	Compound
> 10000 nM	CS(=O)(=O)Nc1cc(Cl)cc(NC(=O)c2cnn(C3CC4(CC(N)C4)C3)c2)c1 (stereo not shown) [Example 319]
2250 nM	CS(=O)(=O)Nc1cc(Cl)cc(NC(=O)c2cnn(-c3ncccc3C#N)c2)c1 [Example 46]
> 10000 nM	CS(=O)(=O)Nc1cc(Cl)cc(NC(=O)c2cnn(C3CC4(COC4)C3)c2)c1 [Example 128]
884 nM	CS(=O)(=O)Nc1cc(Br)cc(NC(=O)c2cnn(-c3ccc(F)cn3)c2)c1 [Example 39]
> 10000 nM	CS(=O)(=O)Nc1cc(Cl)cc(NC(=O)c2cnn(CCCO)c2)c1 [Example 126, N-(3-chloro-5-(methylsulfonamido)phenyl)-1-(3-hydroxypropyl)-1H-pyrazole-4-carboxamide]
> 10000 nM	CS(=O)(=O)Nc1cc(Cl)cc(NC(=O)c2cc3ccc(Cl)cn3c2)c1 [Example 299]
> 10000 nM	CS(=O)(=O)Nc1cc(Cl)cc(NC(=O)c2cnn(-c3ncccc3-c3cncnc3)c2)c1 [Example 387]
382 nM	CS(=O)(=O)Nc1cc(Cl)cc(NC(=O)c2cnn(-c3cc(N4CCOCC4)ccn3)c2)c1 [Example 91]
761 nM	CS(=O)(=O)Nc1cc(Cl)cc(NC(=O)c2cc(C(F)(F)F)n(-c3ccc(N4CCOCC4)cn3)c2)c1 [Example 271]
3330 nM	CS(=O)(=O)Nc1cc(Cl)cc(NC(=O)c2cc3c(F)cccn3c2)c1 [Example 305]
> 10000 nM	CS(=O)(=O)Nc1cc(Cl)cc(NC(=O)c2cc(N3CCNCC3)cs2)c1 [Example 244]
2410 nM	CS(=O)(=O)Nc1cc(Cl)cc(NC(=O)c2cc3c(=O)[nH]ccn3c2)c1 [Example 301]
6410 nM	CC(C)(C)OC(=O)N1CCC(n2cc(C(=O)Nc3cc(Cl)cc(NS(C)(=O)=O)c3)cn2)CC1 [Example 136]
> 10000 nM	CS(=O)(=O)Nc1cc(Cl)cc(NC(=O)c2cnn(C3CC4(CNC4)C3)c2)c1 [Example 146]
4310 nM	CS(=O)(=O)Nc1cc(Cl)cc(NC(=O)c2cc(N3CCOCC3)cs2)c1 [Example 245]
> 10000 nM	CS(=O)(=O)Nc1cc(Cl)cc(NC(=O)c2cnn(-c3ncccc3S(C)(=O)=O)c2)c1 [Example 199]
> 10000 nM	Cc1cn2cc(C(=O)Nc3cc(Cl)cc(NS(C)(=O)=O)c3)cc2c(C)n1 [Example 322]
6110 nM	CS(=O)(=O)Nc1cc(Cl)cc(NC(=O)c2cnn([C@@H]3CCCC[C@@H]3O)c2)c1 (relative stereo) [Example 153, N-(3-chloro-5-(methylsulfonamido)phenyl)-1-(2-cis-hydroxycyclohexyl)-1H-pyrazole-4-carboxamide]
> 10000 nM	CS(=O)(=O)Nc1cc(Cl)cc(NC(=O)c2cnn([C@H]3CCC[C@H](O)C3)c2)c1 (single isomer, unassigned) [Example 152a]
1290 nM	Cn1cc(C(=O)Nc2cc(Cl)cc(NS(C)(=O)=O)c2)cc1N1CCCCC1=O [Example 158, N-(3-chloro-5-(methylsulfonamido)phenyl)-1-methyl-5-(2-oxopiperidin-1-yl)-1H-pyrrole-3-carboxamide]
9970 nM	CS(=O)(=O)Nc1cc(Cl)cc(NC(=O)c2cnn(C3CC4(C3)CN(CC(F)(F)F)C4)c2)c1 [Example 312]

Same assay, conditions: Homo sapiens, HCT-116, circBRIP1, HCT116 cells; ^+ SyBr assay was used; read-out: DHX9 Cellular Target Engagement EC50

Compound	EC50
Cc1ncccc1-c1cc(F)cnc1-c1cc(C(=O)Nc2cc(Cl)cc(NS(C)(=O)=O)c2)sc1C [Example 608]	422 nM
CS(=O)(=O)Nc1cc(Cl)cc(NC(=O)c2cnn(-c3ccccc3COc3cncc(F)c3)c2)c1 [Example 428]	201 nM
CS(=O)(=O)Nc1cc(Cl)cc(NC(=O)c2cc(C(=O)N3CCN(c4ccccc4)CC3)n(-c3ccccn3)c2)c1 [Example 654]	5310 nM
COCc1cc(C(=O)Nc2cc(Cl)cc(NS(C)(=O)=O)c2)cn1-c1ncccc1F [Example 682]	149 nM
CS(=O)(=O)Nc1cc(Cl)cc(NC(=O)c2cc3c(s2)CCC3Oc2cccnc2)c1 (stereo not shown) [Example 687]	3560 nM
CS(=O)(=O)Nc1cc(Cl)cc(NC(=O)c2cc(C(=O)N3CC4(CNC4)C3)n(-c3ccccn3)c2)c1 [Example 643]	> 10000 nM
CCS(=O)(=O)Nc1cc(Cl)cc(NC(=O)c2cc(-c3ncc(F)cn3)c(C3CC3)s2)c1 [Example 449]	860 nM
CS(=O)(=O)Nc1cc(Cl)cc(NC(=O)c2cc(C(=O)N3CCN(CC(F)(F)F)CC3)n(-c3ccccn3)c2)c1 [Example 649]	9930 nM
Cc1sc(C(=O)Nc2cc(Cl)cc(NS(C)(=O)=O)c2)cc1-c1ncc(F)cc1-c1ccc(=O)n(C)c1 [Example 606]	1510 nM
CN(C)C(=O)c1cccc(OCc2cccc(F)c2)c1-n1cc(C(=O)Nc2cc(Cl)cc(NS(C)(=O)=O)c2)cn1 [Example 717]	> 10000 nM

Second part, the molecule after the results:

EC50	Compound
2320 nM	Cc1sc(C(=O)Nc2cc(Cl)cc(NS(C)(=O)=O)c2)cc1N1CCCC1=O [Example 434]
96.1 nM	Cc1cc(C(=O)Nc2cc(Cl)cc(NS(C)(=O)=O)c2)cn1-c1ncc(N2CCOCC2)cc1F [Example 412]
128 nM	Cn1cc(C(=O)Nc2cc(Cl)cc(NS(C)(=O)=O)c2)cc1-c1ccc(Cl)cn1 [Example 576]
142 nM	Cc1sc(C(=O)Nc2cc(Cl)cc(NS(C)(=O)=O)c2)cc1-c1cn(C2CCOCC2)nn1 [Example 692]
370 nM	CS(=O)(=O)Nc1cc(Cl)cc(NC(=O)c2cc(-n3cc(F)cn3)cs2)c1 [Example 440]

Same assay, conditions: Homo sapiens, HCT-116, read-out: DHX9 Cellular Target Engagement EC50

Compound	EC50
CS(=O)(=O)Nc1cc(Cl)cc(NC(=O)c2cnn(-c3ncccc3NCc3ccccc3)c2)c1 [Example 168, 1-(3-(benzylamino)pyridin-2-yl)-N-(3-chloro-5-(methylsulfonamido)phenyl)-1H-pyrazole-4-carboxamide]	2130 nM

Same assay, conditions: circBRIP1, HCT116 cells; SyBr assay (marked ^+); read-out: DHX9 Cellular Target Engagement EC50

EC50	Compound
61 nM	CCc1sc(C(=O)Nc2cc(Cl)cc(NS(C)(=O)=O)c2)cc1-c1ccccn1 [Example 232]
